Measurements: patent US11000033B2, “Ketone or oxime compound, and herbicide” (NISSAN CHEMICAL CORPORATION, priority 2014, dated 2021)

What was measured:
Assay type in all cases: in vivo
Monochoria vaginalis = test: Test Example 1: herbicidal activity, application before weed generation in submerged conditions (symbol C); conditions: application herbicide amount 320 g/ha
In short: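 Scores run 0 to 5 by herbicidal ratio, with 5 meaning 90% or more and 0 meaning 5% or lower, read 3 weeks after treatment. Compound was applied as a diluted emulsion to the water surface of submerged alluvial-soil pots on the day weed seeds were sown.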

[1] = system: Echinochloa crus-galli var. crus-galli; test: Test Example 3: herbicidal effect by foliage application, Wagner pot (symbol H); conditions: application herbicide amount 320 g/ha
In short: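 The compound, formulated as an emulsion and diluted with water to a predetermined rate, is applied uniformly to leaves of two-week-old seedlings growing in submerged alluvial soil at 25–30 °C. Rice is included. Each plant is assessed 3 weeks later using defined criteria.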

[2] = system: directly sowed rice plant; test: Test Example 3: effect on crop by foliage application, Wagner pot (symbol b); conditions: application herbicide amount 320 g/ha
In short: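 Alluvial soil in a 1/10000-are Wagner pot was flooded to a water depth of 0.1–0.5 cm. Echinochloa crus-galli var. crus-galli, Leptochloa chinensis, Cyperus difformis and rice were sown into it and grown in a greenhouse at 25–30 °C.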

Alopecurus myosuroides = test: Test Example 4: herbicidal effect by soil treatment (symbol J); conditions: 320 g/ha
In short: (§1)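 Seeds were sown in sterilized diluvial soil, covered with about 1.5 cm of soil, and the soil surface was sprayed with a water-diluted emulsion of the compound at a predetermined rate. Plants grew in a greenhouse at 25° C. to 30° C.; effects were scored visually 3 weeks after application.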

Lolium multiflorum Lam. = test: Test Example 4: herbicidal effect by soil treatment (symbol K); conditions: 320 g/ha
In short: as §1

Apera spica-venti = test: Test Example 4: herbicidal effect by soil treatment (symbol L); conditions: 320 g/ha
In short: as §1

Amaranthus retroflexus = test: Test Example 4: herbicidal effect by soil treatment (symbol N); conditions: 320 g/ha
In short: as §1

Stellaria media = test: Test Example 4: herbicidal effect by soil treatment (symbol P); conditions: 320 g/ha
In short: as §1

corn = test: Test Example 4: effect on crop by soil treatment (symbol c); conditions: 320 g/ha
In short: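 Seeds were sown in spots on sterilized diluvial soil in a plastic box and covered with about 1.5 cm of soil. Plants were then grown in a greenhouse at 25° C. to 30° C.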

Setaria viridis = test: Test Example 5: herbicidal effect by foliage application, plastic box (symbol G); conditions: 320 g/ha, 3 weeks after application
In short: (§2)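 Seeds were sown in sterilized diluvial soil, covered with about 1.5 cm of soil and grown 14 days in a greenhouse at 25° C. to 30° C. An emulsifiable formulation diluted in water to a set rate was sprayed over foliage, and injury was scored 3 weeks later.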

[3] = system: Echinochloa crus-galli var. crus-galli; test: Test Example 5: herbicidal effect by foliage application, plastic box (symbol H); conditions: 320 g/ha, 3 weeks after application
In short: as §2

Abutilon theophrasti = test: Test Example 5: herbicidal effect by foliage application, plastic box (symbol M); conditions: 320 g/ha, 3 weeks after application
In short: as §2

Chenopodium album = test: Test Example 5: herbicidal effect by foliage application, plastic box (symbol O); conditions: 320 g/ha, 3 weeks after application
In short: as §2

Veronica persica = test: Test Example 5: herbicidal effect by foliage application, plastic box (symbol R); conditions: 320 g/ha, 3 weeks after application
In short: as §2

soybean = test: Test Example 5: effect on crop by foliage application, plastic box (symbol d); conditions: 320 g/ha, 3 weeks after application
In short: (§3)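 Plants were raised from seed in a greenhouse (25° C. to 30° C.) after sowing in a plastic box of sterilized diluvial soil.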

wheat = test: Test Example 5: effect on crop by foliage application, plastic box (symbol e); conditions: 320 g/ha, 3 weeks after application
In short: as §3

| Compound | Herbicidal effect grade, C: Monochoria vaginalis (Monochoria vaginalis) | herbicidal effect on H (Echinochloa crus-galli var. crus-galli), grade 0-5 [1] | effect on crop b (directly sowed rice plant), grade 0-5 [2] | J: Alopecurus myosuroides, herbicidal effect grade (Alopecurus myosuroides) | K: Lolium multiflorum Lam., herbicidal effect grade (Lolium multiflorum Lam.) | L: Apera spica-venti, herbicidal effect grade (Apera spica-venti) | N: Amaranthus retroflexus, herbicidal effect grade (Amaranthus retroflexus) | P: Stellaria media, herbicidal effect grade (Stellaria media) | c: corn, effect grade on crop (corn) | G: Setaria viridis, herbicidal effect (criteria 0-5) (Setaria viridis) | H: Echinochloa crus-galli var. crus-galli, herbicidal effect (criteria 0-5) [3] | M: Abutilon theophrasti, herbicidal effect (criteria 0-5) (Abutilon theophrasti) | O: Chenopodium album, herbicidal effect (criteria 0-5) (Chenopodium album) | R: Veronica persica, herbicidal effect (criteria 0-5) (Veronica persica) | d: soybean, effect on crop (criteria 0-5) (soybean) | e: wheat, effect on crop (criteria 0-5) (wheat) |
| --- | --- | --- | --- | --- | --- | --- | --- | --- | --- | --- | --- | --- | --- | --- | --- | --- |
| CON=C(C)CC1CC(OC(=O)COc2ccc(Br)cc2)=C(c2c(C)cc(C)cc2C)C1=O (centres unmarked) [1-081] | 2 (Herbicidal ratio of 20% or higher and lower than 40%) | 5 (Herbicidal ratio of 90% or more (almost completely withered)) | 5 (Herbicidal ratio of 90% or more (almost completely withered)) | 5 (Herbicidal ratio of 90% or more (almost completely withered)) | 5 (Herbicidal ratio of 90% or more (almost completely withered)) | 5 (Herbicidal ratio of 90% or more (almost completely withered)) | 4 (Herbicidal ratio of 70% or higher and lower than 90%) | 0 (Herbicidal ratio of 5% or lower (almost no effect)) | 4 (Herbicidal ratio of 70% or higher and lower than 90%) | 5 (Herbicidal ratio of 90% or more (almost completely withered)) | 5 (Herbicidal ratio of 90% or more (almost completely withered)) | 4 (Herbicidal ratio of 70% or higher and lower than 90%) | 3 (Herbicidal ratio of 40% or higher and lower than 70%) | 0 (Herbicidal ratio of 5% or lower (almost no effect)) | 5 (Herbicidal ratio of 90% or more (almost completely withered)) | 4 (Herbicidal ratio of 70% or higher and lower than 90%) |
| CON=C(C)CC1CC(OC(=O)COc2ccc(I)cc2)=C(c2c(C)cc(C)cc2C)C1=O (centres unmarked) [1-082] | 2 (Herbicidal ratio of 20% or higher and lower than 40%) | 5 (Herbicidal ratio of 90% or more (almost completely withered)) | 5 (Herbicidal ratio of 90% or more (almost completely withered)) | 5 (Herbicidal ratio of 90% or more (almost completely withered)) | 5 (Herbicidal ratio of 90% or more (almost completely withered)) | 5 (Herbicidal ratio of 90% or more (almost completely withered)) | 5 (Herbicidal ratio of 90% or more (almost completely withered)) | 0 (Herbicidal ratio of 5% or lower (almost no effect)) | 4 (Herbicidal ratio of 70% or higher and lower than 90%) | 5 (Herbicidal ratio of 90% or more (almost completely withered)) | 5 (Herbicidal ratio of 90% or more (almost completely withered)) | 4 (Herbicidal ratio of 70% or higher and lower than 90%) | 1 (Herbicidal ratio of 5% or higher and lower than 20%) | 0 (Herbicidal ratio of 5% or lower (almost no effect)) | 4 (Herbicidal ratio of 70% or higher and lower than 90%) | 5 (Herbicidal ratio of 90% or more (almost completely withered)) |
| CON=C(C)CC1CC(OC(=O)COc2ccc3ccccc3c2)=C(c2c(C)cc(C)cc2C)C1=O (centres unmarked) [1-083] | 1 (Herbicidal ratio of 5% or higher and lower than 20%) | 5 (Herbicidal ratio of 90% or more (almost completely withered)) | 3 (Herbicidal ratio of 40% or higher and lower than 70%) | 5 (Herbicidal ratio of 90% or more (almost completely withered)) | 5 (Herbicidal ratio of 90% or more (almost completely withered)) | 5 (Herbicidal ratio of 90% or more (almost completely withered)) | 5 (Herbicidal ratio of 90% or more (almost completely withered)) | 0 (Herbicidal ratio of 5% or lower (almost no effect)) | 4 (Herbicidal ratio of 70% or higher and lower than 90%) | 5 (Herbicidal ratio of 90% or more (almost completely withered)) | 5 (Herbicidal ratio of 90% or more (almost completely withered)) | 4 (Herbicidal ratio of 70% or higher and lower than 90%) | 0 (Herbicidal ratio of 5% or lower (almost no effect)) | 0 (Herbicidal ratio of 5% or lower (almost no effect)) | 4 (Herbicidal ratio of 70% or higher and lower than 90%) | 5 (Herbicidal ratio of 90% or more (almost completely withered)) |
| CON=C(CC1CC(O)=C(c2c(C)cc(C)cc2C)C1=O)C1CCCCC1 (centres unmarked) [1-085] | 0 (Herbicidal ratio of 5% or lower (almost no effect)) | 5 (Herbicidal ratio of 90% or more (almost completely withered)) | 5 (Herbicidal ratio of 90% or more (almost completely withered)) | 3 (Herbicidal ratio of 40% or higher and lower than 70%) | 3 (Herbicidal ratio of 40% or higher and lower than 70%) | 3 (Herbicidal ratio of 40% or higher and lower than 70%) | 0 (Herbicidal ratio of 5% or lower (almost no effect)) | 0 (Herbicidal ratio of 5% or lower (almost no effect)) | 0 (Herbicidal ratio of 5% or lower (almost no effect)) | 5 (Herbicidal ratio of 90% or more (almost completely withered)) | 5 (Herbicidal ratio of 90% or more (almost completely withered)) | 0 (Herbicidal ratio of 5% or lower (almost no effect)) | 0 (Herbicidal ratio of 5% or lower (almost no effect)) | 0 (Herbicidal ratio of 5% or lower (almost no effect)) | 0 (Herbicidal ratio of 5% or lower (almost no effect)) | 3 (Herbicidal ratio of 40% or higher and lower than 70%) |
| C=CC(CC1CC(O)=C(c2c(C)cc(C)cc2C)C1=O)=NOC (centres unmarked) [1-086] | 0 (Herbicidal ratio of 5% or lower (almost no effect)) | 5 (Herbicidal ratio of 90% or more (almost completely withered)) | 5 (Herbicidal ratio of 90% or more (almost completely withered)) | 3 (Herbicidal ratio of 40% or higher and lower than 70%) | 5 (Herbicidal ratio of 90% or more (almost completely withered)) | 3 (Herbicidal ratio of 40% or higher and lower than 70%) | 0 (Herbicidal ratio of 5% or lower (almost no effect)) | 0 (Herbicidal ratio of 5% or lower (almost no effect)) | 1 (Herbicidal ratio of 5% or higher and lower than 20%) | 3 (Herbicidal ratio of 40% or higher and lower than 70%) | 5 (Herbicidal ratio of 90% or more (almost completely withered)) | 0 (Herbicidal ratio of 5% or lower (almost no effect)) | 0 (Herbicidal ratio of 5% or lower (almost no effect)) | 2 (Herbicidal ratio of 20% or higher and lower than 40%) | 0 (Herbicidal ratio of 5% or lower (almost no effect)) | 0 (Herbicidal ratio of 5% or lower (almost no effect)) |
